This is an account of results in US4269834A, “Copper complexes of isoquinazolines” (priority 1977, dated 1981).

Converted amounts (≈) assume the structure as drawn. Like-named read-outs stand apart in the source and are kept apart here.

Common to all, as to assay type: cell-based
The test system of one experiment is Spiroplasma citri. Kind of experiment: Activity against Spiroplasma citri (MIC). The note with it: for MIC S.Citri (with Cu): Table IVb, with Cu (50 μg/ml Cu^2+); for MIC / MIC with Cu: Table III; for MIC: without added Cu; for MIC with Cu: media containing 50 μg/ml Cu^2+. An excerpt: (§1) The following tables show some activities--expressed as minimum inhibiting concentration (MIC)--of the prepared compounds against various micro-organisms. The compounds are identified by reference to the Example in which they are described. When more than one compound is mentioned in an Example, they are distinguished by a number between parentheses, corresponding to their order of occurrence, for instance: VI (2) refers to the second compound prepared according to Example VI. The term "with Cu" refers to tests conducted in media containing 50 μg/ml Cu^2+.
(§2) The activities of the following compounds, not mentioned in the Examples, were also measured.

In the next experiment the test system is Mycoplasma gallisepticum. The experiment is described as follows: Activity against Mycoplasma gallisepticum (minimum inhibiting concentration). The following applies: Table I; for MIC with Cu: media containing 50 μg/ml Cu^2+; for MIC: without added Cu.
Description: as §1, §2

The test system of the next experiment is M. meleagridis. Kind of experiment: Activity against other Mycoplasma species: M. meleagridis (MIC). The following applies: Table II, with Cu (50 μg/ml Cu^2+).
Description: as §1

For a further experiment, the system named is M. synoviae. The experiment is described as follows: Activity against other Mycoplasma species: M. synoviae (MIC). The following applies: Table II, with Cu (50 μg/ml Cu^2+).
Description: as §1

In the next experiment the test system is M. gallisepticum K514. The experiment is described as follows: Development of resistance of M. gallisepticum K514 in the presence of copper ions (repeated MIC determinations). The following applies: 100 μg/ml Cu^2+; procedure repeated 12 times. As for the experimental part:
It was investigated whether M. gallisepticum K514 develops a resistance against the compounds of Examples IX (1), IX (2), VIIIe and XIIb in the presence of copper ions. The MIC's in the presence of 100 μg/ml Cu^2+ were determined in the usual way. The test tubes containing the highest concentration of each compound in which a considerable growth of micro-organism still occurred, were used for inoculation in a next determination. […] Consequently, no resistance is developed.

The test system of another experiment is M. suipneumoniae. Kind of experiment: Activity against other Mycoplasma species: M. suipneumoniae (MIC). The note with it: Table II, copper complexes, head 'with Cu' possibly not covering these columns.
Description: as §1

In experiment [1] the test system is M. Hyorhinis (tylosin resistent). The experiment is described as follows: Activity against other Mycoplasma species: M. Hyorhinis (tylosin resistent) (MIC). The note with it: Table II, copper complexes, head 'with Cu' possibly not covering these columns.
Description: as §1

The next experiment deals with M. hyorhinis. Kind of experiment: Activity against other Mycoplasma species: M. hyorhinis (MIC). The note with it: Table II, copper complexes, head 'with Cu' possibly not covering these columns.
Description: as §1

Setting [2] is: Mycoplasmoides gallisepticum, read-out: MIC.

For the compound `Cc1ccc2ccc3ccc(C)nc3c2n1` [A], the “MIC S.Citri (with Cu)” value against Spiroplasma citri was found to be 0.03 µg/mL (≈ 0.144 µM).

As for `CCCCCCCCCCCc1c(-c2ccccn2)ncc2ccccc12` [D], the “MIC S.Citri (with Cu)” value in the experiment with Spiroplasma citri was determined as 0.8 µg/mL (≈ 2.22 µM).

Take `COc1ccc2ccc3ccc(OC)nc3c2n1` [H]: in the experiment on Spiroplasma citri, the “MIC S.Citri (with Cu)” value was found to be 1.5 µg/mL (≈ 6.24 µM).

Broadly, the MIC is the smallest concentration in the dilution series that meets the test's criterion for growth inhibition. Take `Cc1cccc(-c2cc3ccccc3c(N)n2)n1.Cc1cccc(-c2cc3ccccc3c(N)n2)n1.O=[N+]([O-])[O-].[Cu+]` [IIf, Bis[1-amino-3-(6-methyl-2-pyridyl)isoquinoline]cuprous nitrate]: the “MIC with Cu” value against Mycoplasma gallisepticum was 0.03 µg/mL. The minimal inhibitory concentration (MIC) in the experiment on Spiroplasma citri came out at 25 µg/mL.

In the case of `Cc1cccc(-c2cc3ccccc3c(N)n2)n1.Cl` [IX (1), 1-amino-3-(6-methyl-2-pyridyl)-isoquinoline hydrochloride], the “MIC with Cu” value against M. meleagridis was determined as 0.025 µg/mL; in the experiment with M. synoviae, 0.025 µg/mL; in the experiment with Mycoplasma gallisepticum, 0.03 µg/mL; in the experiment with Spiroplasma citri it was 0.4 µg/mL. In the experiment with M. gallisepticum K514, the “Resistance development: change of MIC” value is on record as “without a significant increase of the MIC's”. The minimum inhibitory concentration (MIC) in the experiment on Mycoplasma gallisepticum (setting [2]) is 100 µg/mL.

For the compound `CCc1cccc(-c2cc3ccccc3c(N)n2)n1.Cl` [IX (2), 1-amino-3-(6-ethyl-2-pyridyl) isoquinoline hydrochloride], the “MIC with Cu” value against M. meleagridis turned out to be 0.013 µg/mL; in the experiment on M. synoviae, 0.05 µg/mL; against Mycoplasma gallisepticum, 0.02 µg/mL; against Spiroplasma citri, 0.2 µg/mL. Besides, in the experiment on M. gallisepticum K514, the “Resistance development: change of MIC” value is listed as “without a significant increase of the MIC's”.

Consider `Cc1ccc2ccc3ccc(C)nc3c2n1.Cc1ccc2ccc3ccc(C)nc3c2n1.O.O=[N+]([O-])[O-].O=[N+]([O-])[O-].[Cu+2]` [VI (1), bis(2,9-dimethyl-1,10phenanthroline)cupric nitrate monohydrate], for which the MIC against M. suipneumoniae worked out at 3 µg/mL; in experiment [1] it was 1 µg/mL; in the experiment with M. hyorhinis, 3 µg/mL; in the experiment with Mycoplasma gallisepticum, 0.4 µg/mL; in the experiment with Spiroplasma citri, 50 µg/mL.

For the compound `Cc1cccc2cc(-c3ccccn3)nc(N)c12` [VIIIe], the “MIC with Cu” value with M. meleagridis was determined as 0.05 µg/mL; against M. synoviae it was 0.1 µg/mL; with Mycoplasma gallisepticum it was 0.06 µg/mL; in the experiment with Spiroplasma citri it was 0.1 µg/mL. For the same compound, in the experiment on M. gallisepticum K514, the “Resistance development: change of MIC” value was “without a significant increase of the MIC's”. In addition, the MIC in the experiment with Mycoplasma gallisepticum (setting [2]) turned out to be 100 µg/mL (≈ 425 µM).

Consider `CCc1cccc2cc(-c3ccccn3)nc(N)c12` [VIIIf], for which the MIC in the experiment with Mycoplasma gallisepticum (setting [2]) was above 100 µg/mL. Also, the “MIC with Cu” value amounted to 0.05 µg/mL against Mycoplasma gallisepticum and 0.4 µg/mL in the experiment on Spiroplasma citri.

In the case of `CCCCCCCCCCc1ccc2c(N)nc(-c3ccccn3)cc2c1` [VIIIg], the minimal inhibitory concentration (MIC) in the experiment with Mycoplasma gallisepticum (setting [2]) turned out to be 100 µg/mL (≈ 277 µM). Moreover, the “MIC with Cu” value with Mycoplasma gallisepticum was determined as 0.06 µg/mL; in the experiment with Spiroplasma citri, 0.8 µg/mL.

As to `Nc1nc(-c2ccccn2)cc2c(Cl)cccc12` [VIIIh], the MIC in the experiment with Mycoplasma gallisepticum (setting [2]) is above 100 µg/mL. Further, the “MIC with Cu” value in the experiment with Mycoplasma gallisepticum was 0.05 µg/mL; against Spiroplasma citri it was 0.4 µg/mL.

Regarding `CCc1nc(-c2ccccn2)cc2ccccc12` [XIIId, 1-ethyl-3-(2-pyridyl)isoquinoline], the “MIC with Cu” value stood at 0.06 µg/mL with Mycoplasma gallisepticum and 0.2 µg/mL with Spiroplasma citri.

As to `Cc1cccc(-c2cc3ccccc3c(C)n2)n1` [XIIb, 1-methyl-3(6-methyl-2-pyridyl)isoquinoline], the “MIC with Cu” value worked out at 0.05 µg/mL in the experiment on M. meleagridis, 0.1 µg/mL with M. synoviae, 0.03 µg/mL against Mycoplasma gallisepticum and 0.05 µg/mL with Spiroplasma citri. The “Resistance development: change of MIC” value in the experiment on M. gallisepticum K514 is reported as “without a significant increase of the MIC's”.

As for `Nc1nc(-c2ccccn2)cc2ccccc12` [XIIc (1), 1-amino-3-(2-pyridyl)isoquinoline], the minimal inhibitory concentration (MIC) with Mycoplasma gallisepticum (setting [2]) is above 100 µg/mL. For the same compound, the figures for the “MIC with Cu” value with Mycoplasma gallisepticum and against Spiroplasma citri were 0.4 µg/mL and 0.2 µg/mL, respectively.

Consider `Cc1nc(-c2ccccn2)cc2ccccc12` [XIIc (3), 1-methyl-3-(2-pyridyl)isoquinoline], for which, in the experiment with Mycoplasma gallisepticum (setting [2]), the MIC came out at 6 µg/mL (≈ 27.2 µM). Further, the “MIC with Cu” value against Mycoplasma gallisepticum was found to be 0.06 µg/mL; against Spiroplasma citri it was 0.2 µg/mL.

For `Cn1ccnc1-c1nc(N)c2ccccc2n1.Cn1ccnc1-c1nc(N)c2ccccc2n1.O=[N+]([O-])[O-].O=[N+]([O-])[O-].[Cu+2]` [XVIb (3), Bis[4-amino-2-(1-methyl-1H-imidazole-2-yl)quinazoline]cupric nitrate], in the experiment on Mycoplasma gallisepticum, the “MIC with Cu” value came out at 0.2 µg/mL and the MIC amounted to 12.5 µg/mL.

Take `Cn1ccnc1-c1cc2ccccc2c(N)n1` [XVa, 1-amino-3-(1-methyl-1H-imidazole-2-yl)isoquinoline]: the MIC in the experiment with Mycoplasma gallisepticum (setting [2]) was above 100 µg/mL. For the same compound, the “MIC with Cu” value in the experiment on Mycoplasma gallisepticum worked out at 1.5 µg/mL.

As to `Cn1ccnc1-c1cc2ccccc2c(N)n1.Cn1ccnc1-c1cc2ccccc2c(N)n1.O=[N+]([O-])[O-].[Cu+]` [XVb (1), Bis[1-amino-3-(1-methyl-1H-imidazole-2-yl)isoquinoline]cuprous nitrate], in the experiment with Mycoplasma gallisepticum, the “MIC with Cu” value was 0.8 µg/mL and the MIC worked out at 12.5 µg/mL.

Consider `Cn1ccnc1-c1cc2ccccc2c(N)n1.O=[N+]([O-])[O-].O=[N+]([O-])[O-].[Cu+2]` [XVb (2), mono[1-amino-3-(1-methyl-1H-imidazole-2-yl)isoquinoline]cupric nitrate], for which, in the experiment on Mycoplasma gallisepticum, the “MIC with Cu” value was found to be 1.5 µg/mL and the MIC is 12.5 µg/mL.

As to `Cn1ccnc1-c1cc2ccccc2c(N)n1.Cn1ccnc1-c1cc2ccccc2c(N)n1.O=[N+]([O-])[O-].O=[N+]([O-])[O-].[Cu+2]` [XVb (3), Bis[1-amino-3-(1-methyl-1H-imidazole-2-yl)isoquinoline]cupric nitrate], in the experiment on Mycoplasma gallisepticum, the “MIC with Cu” value is 1.5 µg/mL and the MIC came out at 12.5 µg/mL.

As to `Cl.Cl.Nc1nc(-c2ncc[nH]2)nc2ccccc12` [XXa, 4-amino-2(1H-imidazole-2-yl)quinazoline dihydrochloride], in the experiment with Mycoplasma gallisepticum (setting [2]), the MIC is above 100 µg/mL. The “MIC with Cu” value with Mycoplasma gallisepticum is 3 µg/mL.

For the compound `Nc1nc(-c2ncc[nH]2)nc2ccccc12.O=[N+]([O-])[O-].O=[N+]([O-])[O-].[Cu+2]` [XXb (2), Mono[4-amino-2-(1H-imidazole-2-yl)quinazoline]cupric nitrate], in the experiment on Mycoplasma gallisepticum, the “MIC with Cu” value was found to be 1.5 µg/mL and the minimal inhibitory concentration (MIC) was found to be 25 µg/mL.

For `Nc1nc(-c2ncc[nH]2)nc2ccccc12.Nc1nc(-c2ncc[nH]2)nc2ccccc12.O=[N+]([O-])[O-].O=[N+]([O-])[O-].[Cu+2]` [XXb (3), Bis[4-amino-2-(1H-imidazole-2-yl)quinazoline]cupric nitrate], in the experiment on Mycoplasma gallisepticum, the “MIC with Cu” value stood at 6 µg/mL and the MIC stood at 50 µg/mL.
